The values below come from ChEMBL document CHEMBL4028849 (J Med Chem, 2017).

Data set [1] in a line: Terminal half life in Sprague-Dawley rat at 1 mg/kg, iv. The format is ADME, organism-based. Conditions: in vivo, read-out: beta t1/2 (converted).
Data set [2] in a line: n-Octanol-water partition co-efficient, log P of the compound at 1 mg/ml by HPLC analysis. The format is physicochemical.

Take `COc1ccc2c(c1)NC(=O)CN2c1nc(C)nc2ccccc12`: in data set [1], the half-life was 52 h.

As for `COc1ccc2c(c1)NC(=O)CN2c1nc(N2CCC(F)(F)C2)nc2ccccc12`, in data set [2], the log partition coefficient (logP) is 2.48.

`CCCCNc1nc(N2CC(=O)Nc3cc(OC)ccc32)c2ccccc2n1` returned a log partition coefficient (logP) in data set [2] of 3.91.

`COc1ccc2c(c1)NC(=O)CN2c1nc(COC(C)=O)nc2ccccc12`: the logP in data set [2] is recorded as 2.7.

Compound `CNc1nc(N2CC(=O)Nc3cc(OC)ccc32)c2ccccc2n1` yielded a logP in data set [2] of 2.77.

For `COc1ccc2c(c1)NC(=O)CN2c1nc(CO)nc2ccccc12`, the logP in data set [2] is reported as 2.14.

In the case of `COc1ccc2c(c1)NC(=O)CN2c1nc(NC2CC2)nc2ccccc12`, the lipophilicity (logP) in data set [2] was found to be 2.26.

For `COc1ccc2c(c1)NC(=O)CN2c1nc(Cl)nc2ccccc12`, the lipophilicity (logP) in data set [2] was found to be 2.94.

In data set [2], `COc1ccc2c(c1)NC(=O)CN2c1nc(N2CC(F)(F)C2)nc2ccccc12` showed a logP of 2.14.

With `CCNc1nc(N2CC(=O)Nc3cc(OC)ccc32)c2ccccc2n1`, the log partition coefficient (logP) in data set [2] was 2.56.

In turn, `COc1ccc2c(c1)NC(=O)CN2c1nc(NCCCO)nc2ccccc12` registered a logP in data set [2] of 2.6.

Take `COc1ccc2c(c1)NC(=O)CN2c1nc(NC2CCCC2)nc2ccccc12`: the logP in data set [2] came out at 2.33.

One may read the logP as a log measure of how a compound divides between an organic and an aqueous phase. A high value points to a more lipophilic compound.
